Results published in publication PMC9501058, “Clinical Effectiveness and Pharmacokinetics of Dalbavancin in Treatment-Experienced Patients with Skin, Osteoarticular, or Vascular Infections” (Pharmaceutics, 2022).
Read-outs that look alike come from different tables or passages of the source.

Tests used:
[1] = Adverse events under DBV; assay type: in vivo, human
From the text: Table 1 Overall patients’ characteristics at the baseline. | column: Overall / n = 76; Intensive PK Study (n = 41) / Group 0 (n = 17)

[2] = clinical; settings: human, in vivo, iv
[3] = test system: plasma proteins (mainly albumin); settings: human; cited from earlier work
[4] = cited from earlier work
[5] = 35 healthy subjects, single infusion of 1500 mg; ref Rappo et al. 15; cited from earlier work
[6] = ref Dunne et al. 16; cited from earlier work
[7] = human, in vivo
[8] = single 1000 mg infusion; ref Nicolau et al. 14; cited from earlier work

CN[C@H]1C(=O)N[C@@H]2Cc3ccc(cc3)Oc3cc4cc(c3O[C@@H]3O[C@H](C(=O)O)[C@@H](O)[C@H](O)[C@H]3NC(=O)CCCCCCCCC(C)C)Oc3ccc(cc3Cl)[C@@H](O)[C@@H]3NC(=O)[C@H](NC(=O)[C@@H]4NC(=O)[C@@H](NC2=O)c2cc(cc(O)c2Cl)Oc2cc1ccc2O)c1ccc(O)c(c1)-c1c(O[C@H]2O[C@H](CO)[C@@H](O)[C@H](O)[C@@H]2O)cc(O)cc1[C@@H](C(=O)NCCCN(C)C)NC3=O [DBV, Dalbavancin]
AEs: yes ([1]; number of patients [%], group 0 (n = 17): single 1500 mg dose): 1 [6%]
AEs: yes ([1]; number of patients, overall n = 76): 1
Cmax ([2]; 1500 mg, Cmax I dose): 343 µg/mL
Cmax ([2]; Cmax II dose): 337 µg/mL
Protein binding (mean percentage in humans) [3]: 93%
Elimination half-life [4]: 220 to 240 h
Penetration into the epithelial-lining fluid [5]: 36%
Mean bone/plasma AUC [6]: 13.1%
AUC0–3w [7]: 39,985 [37,045–39,985] mg/L·h
Cmax II dose [7]: 379.5 [321.3–448.8] mg/L
AUC0–1w ([7]; iv): 26,693 [20,842–28,630] mg/L·h
AUC0–2w ([7]; iv): 34,168 [25,336–37,301] mg/L·h
AUC0–3w ([7]; iv): 39,270 [28,876–43,971] mg/L·h
Cmax I dose ([7]; iv): 347.0 [292.4–479.2] mg/L
Cumul. AUC0–4w ([7]; iv): 41,681 [32,055–48,180] mg/L·h
Mean penetration into skin blister fluid compared with plasma [8]: 59.6%
